Measured values as given in PubChem BioAssay AID489041 (Sanford-Burnham Center for Chemical Genomics, 2010).
Calls of active or inactive are those of the source. No rule for the calls is given here.

Tested on: HEK-293T NF-kB luciferase reporter counterscreen, luminescence
Assay: NF-kB reporter inhibition in HEK-293T, dose response, counter-screen for T-cell antigen receptor NF-kB inhibitors, HEK-293T cells, luminescence (AID 489041)

| SMILES | IC50 |
| --- | --- |
| O=C(NNc1ccnc2cc(Cl)ccc12)C1CCCCC1 | 0.33 µM |
| CCOc1ccccc1N1CC(O)=C(c2nc3ccccc3s2)C1=N | 8.73 µM |
| O=C(N[C@@H](Cc1ccccc1)C(=O)CCl)OCc1ccccc1 | 15.9 µM |
| N/C(=N\OCc1ccc([N+](=O)[O-])cc1)c1ccccn1 | 1.78 µM |
| Cc1ccc(Nc2nc(-c3c(C)nc4ncccn34)cs2)cc1 | 1 µM |
| CCN1/C(=C/c2ccc3cc(C)ccc3[n+]2CC)Sc2ccc3sccc3c21 | 63 µM (inactive) |
| Oc1ccc2ccccc2c1/C=N/Nc1nnc(-c2ncc[nH]2)c2ccccc12 | 0.52 µM |
| Brc1ccc2c(c1)C(C1=NCCN1)c1ccccc1CS2 (stereo unspecified) | > 80 µM (inactive) |
| CCC/C(O)=C1\C(=O)CC(C)(C)CC1=Nc1ccc(OC)cc1OC | 18.4 µM |
| O=C(c1cc(-c2ccncc2)nc2c(Cl)cccc12)N1CCN(c2ccccc2F)CC1 | 12.5 µM |
| Cc1ccc(C)c(CSc2nc3[nH]ncc3c(=O)[nH]2)c1 | 4.88 µM |
| CCOC(=O)COc1cccc2c(=O)n(CC(=O)NCc3ccccc3)ccc12 | 0.63 µM |
| CN(Cc1ccccc1)C1=CC(=[N+]2CCCC2)CC(C)(C)C1 | 1.61 µM |
| C/C=C(\C)C(=O)N[C@@H](c1ccccc1)[C@@H](O)C(=O)O[C@H]1C[C@@]2(O)[C@@H](OC(=O)c3ccccc3)C3[C@](C)(C(=O)[C@H](O)C(=C1C)C2(C)C)[C@@H](O)C[C@H]1OC[C@@]31OC(C)=O (stereo partly specified) | > 80 µM (inactive) |
| N#Cc1ccc(-c2cccs2)nc1SCc1cccnc1 | 0.94 µM |
| COc1cccc(/C=N/Nc2ccc(C(=O)O)cc2)c1O | 0.41 µM |
| COC(=O)c1nn(-c2ccc3c(c2)CCN3C(C)=O)cc1O | 3.87 µM |
| COc1ccc(OC)c(C2CC(=O)c3c([nH]c(C(=O)OC(C)C)c3C)C2)c1 (stereo unspecified) | 2.29 µM |
| CCOC(=O)C(C)Oc1cccc2c(=O)n(CC(=O)NCc3ccco3)ccc12 (stereo unspecified) | 7.92 µM |
| Cc1cccc(OCCNC(=O)c2ccc(Cl)c(S(=O)(=O)NCc3cccnc3)c2)c1 | 10.1 µM |
| O=C(Nc1ccc(S(=O)(=O)Nc2ccccc2)cc1)c1ccc(CN2CCOCC2)cc1 | 5.23 µM |
| COc1cccc(CN(C)C(=O)c2ccc(OCC(=O)Nc3cccc(C(F)(F)F)c3)c(OC)c2)c1 | 1.88 µM |
| Cc1cccc(NS(=O)(=O)c2ccc(-c3cnc(C4CC4)o3)cc2)c1C | 1.7 µM |
| C=CCOC(=O)c1[nH]c2c(c1C)C(=O)CC(c1ccco1)C2 (stereo unspecified) | < 0.16 µM |
| CC(=O)c1sc2c(c1OC(=O)c1ccc(Cl)cc1Cl)c(=O)n(-c1ccccc1)c(=S)n2-c1ccccc1 | 28.7 µM (inactive) |
| COc1ccc(C)cc1NS(=O)(=O)c1ccc(-c2cnc(C3CC3)o2)cc1 | 0.84 µM |

| SMILES | IC50 |
| --- | --- |
| CC(=O)O[C@H]1C(=O)[C@@]2(C)C([C@H](OC(=O)c3ccccc3)[C@]3(O)C[C@H](OC(=O)[C@H](O)[C@@H](NC(=O)c4ccccc4)c4ccccc4)C(C)=C1C3(C)C)[C@]1(OC(C)=O)CO[C@@H]1C[C@H]2O (stereo partly specified) | > 80 µM (inactive) |
| O=C(NCCOc1ccccc1)c1cc([N+](=O)[O-])ccc1N1CCOCC1 | 72.2 µM (inactive) |
| CCCOC(=O)c1[nH]c2c(c1C)C(=O)CC(c1cccs1)C2 (stereo unspecified) | 15.2 µM |
| COc1ccc2nc(C)cc(N/N=C/c3ccc(F)cc3)c2c1 | 22.4 µM (inactive) |
| Cc1ccc(C(=O)O/N=C(\N)c2ccccn2)c(Cl)c1 | 2.61 µM |
| Cn1nc(CC(=O)Nc2ccc(N3CCN(C(=O)OC(C)(C)C)CC3)cc2)c2ccccc2c1=O | 0.76 µM |
| COC(=O)C1=C(CN2CCCc3ccccc32)NC(=O)NC1c1ccc(F)cc1 (stereo unspecified) | 5.33 µM |
| Cn1ncnc2c(=O)n(C)c(=O)nc1-2 | 1.11 µM |
| COc1cc(/C=C/C(=O)c2ccc([N+](=O)[O-])o2)ccc1O | 7.49 µM |
| Oc1ccccc1N=Nc1nc(-c2ccccc2)c(-c2ccccc2)[nH]1 | 2.84 µM |
| CNC[C@H](CC1CCCCC1)NC[C@H](Cc1ccccc1)NCCC12CC3CC(CC(C3)C1)C2 | 25 µM (inactive) |
| COc1cc(C(=O)Nc2ccc3c(c2)CCN3C(C)=O)cc(OC)c1OC | 4.83 µM |
| COc1ccccc1CNS(=O)(=O)c1ccc(-c2cc(C)no2)cc1 | 8.48 µM |
| COC(=O)c1[nH]c2ccc(F)cc2c1NS(=O)(=O)c1ccc(OC)cc1 | 11.8 µM |
| Cc1ccc2c(c1)Oc1ccc(NC(=O)CCl)cc1C(=O)N2 | 2.71 µM |
| Cc1ccc(C(=O)N/N=C/c2ccc([N+](=O)[O-])s2)cc1 | 4.36 µM |
| O=S(=O)(Nc1cccc2ncccc12)c1cccs1 | > 80 µM (inactive) |
| Cc1ccc(C(=O)c2cc([N+](=O)[O-])ccc2N2CCCCC2)cc1C | 6.16 µM |
| c1ccc(-c2noc(-c3ccc4c(c3)OCO4)n2)nc1 | 1.4 µM |
| COc1ccc(C(NC(=O)C(C)C)c2ccc3cccnc3c2O)cc1 (stereo unspecified) | > 80 µM (inactive) |
| CC(C)Cn1c(N)c(C(=O)CSc2ccc3c(c2)OCCO3)c(=O)n(C)c1=O | 0.85 µM |
| CCN(CC)c1ccc(-c2nn3c(-c4n[nH]c5c4CCC5)nnc3s2)cc1 | 2.16 µM |
| COC(=O)c1[nH]c2c(c1C)C(=O)CC(c1cccs1)C2 (stereo unspecified) | 1.92 µM |
| c1ccc2c(c1)CCN(c1ncnc3c1[nH]c1ccccc13)C2 | 1.43 µM |
| COc1cc2c(c(OC)c1OC)-c1ccc(O)cc1[C@@H](NC(C)=O)CC2 | > 80 µM (inactive) |
| COc1cc(C(=O)OCCc2cc3ccccc3c(=O)o2)cc(OC)c1OC | 14.9 µM |

| SMILES | IC50 |
| --- | --- |
| CCOC(=O)c1[nH]c(C=O)c(C(=O)OCC)c1C | 15.5 µM |
| CC(=O)O[C@H]1C(=O)[C@@]2(C)C([C@H](OC(=O)c3ccccc3)[C@]3(O)C[C@H](OC(=O)[C@H](O)[C@@H](NC(=O)Cc4ccccc4)c4ccccc4)C(C)=C1C3(C)C)[C@]1(OC(C)=O)CO[C@@H]1C[C@@H]2O (stereo partly specified) | 45.6 µM (inactive) |
| Cc1noc(C)c1COc1cccc(C(=O)OCC(=O)N2CC(=O)Nc3ccccc32)c1 | 24.9 µM (inactive) |
| O=C(N=Nc1c(O)[nH]c2ccc(Br)cc12)c1ccccc1-n1cccc1 | 7.76 µM |
| COc1ccc(OCC(=O)Nc2ccccc2N2CCCCC2)cc1 | 12 µM |
| COc1cc(NS(=O)(=O)c2ccc(OC)c(C)c2C)c(OC)cc1Cl | 5.28 µM |
| Clc1cccc(Cl)c1OCCOCCNCc1ccccc1 | 68.4 µM (inactive) |
| CCCCCCCOc1ccc(OC(=O)c2ccncc2)cc1 | > 80 µM (inactive) |
| COc1ccc(COC(=O)c2cc([N+](=O)[O-])ccc2N2CCOCC2)cc1F | 2.29 µM |
| Cc1ccc(NC(=O)Nc2ccnc(-c3cccnc3)n2)cc1 | > 80 µM (inactive) |
| CCCC(=O)NC(c1ccc(C)cc1)c1ccc2cccnc2c1O (stereo unspecified) | 0.43 µM |
| CCOc1ccc(Br)cc1C1=CC(=O)C[C@H](c2ccc(OC)cc2)C1 | 13.7 µM |
| COc1ccc(-n2nnnc2-c2ccccc2)cc1 | > 80 µM (inactive) |
| COc1cc(C(=O)N2CCN(c3cccc(C)c3C)CC2)cc(OC)c1OC | 12.5 µM |
| CC(=O)c1ccc(N2CCN(S(=O)(=O)c3ccc4c(c3)CC(C)N4C(=O)C3CC3)CC2)cc1 (stereo unspecified) | 3.06 µM |
| COc1ccc([N+](=O)[O-])cc1Nc1c2ccccc2nc2ccccc12 | 1.38 µM |
| CCCN(CCC)C1=CC(=[N+]2CCCC2)CC(C)(C)C1 | 2.39 µM |
| COc1cccc(N2CCN(C(=O)c3ccc(CS(=O)c4ccccc4C)o3)CC2)c1 (stereo unspecified) | 8.21 µM |
| COC(=O)C[C@]1(C(=O)OC)CN(C#N)N(c2ccc(Cl)cc2)C12c1ccccc1-c1ccccc12 | 20.1 µM (inactive) |
| O=C(c1ccccc1-c1ccccc1)N1CCN(c2ccccn2)CC1 | > 80 µM (inactive) |
| COc1ccccc1N1CCN(C(=O)C2c3ccccc3Oc3ccccc32)CC1 | 14.2 µM |
| O[C@@H]1[C@@H](O)C=C2CCN3Cc4cc5c(cc4[C@H]1C23)OCO5 (stereo partly specified) | 1.97 µM |
| C[C@]12CC[C@H](O)C[C@H]1CC[C@@H]1[C@@H]2CC[C@]2(C)[C@@H](C3=CC(=O)OC3)CC[C@]12O | < 0.16 µM |
| CC(C)(C)c1ccc(C(=O)O/N=C(\N)c2ccccc2)cc1 | 0.31 µM |
| CCOc1ccc(Nc2cc(C)nc(-n3nc(C)cc3C)n2)cc1 | 3.93 µM |
| CCOc1ccccc1NC(=O)Cn1nnc(C(=O)NCc2ccco2)c1N | 26.3 µM (inactive) |

| SMILES | IC50 |
| --- | --- |
| CCCCCCCCCCCCCCCC[n+]1cccc(C(=O)N(CC)CC)c1 | 20.9 µM (inactive) |
| Cc1ccc(C(=O)c2cc([N+](=O)[O-])ccc2N2CCCCC2)cc1 | 4.17 µM |
| CCCCCCCCCCCCCCCC[n+]1ccc(/C=N/O)cc1 | 20.7 µM (inactive) |
| CCOC(=O)/C=C/S(=O)(=O)c1ccc(NC(C)=O)cc1 | 20.1 µM (inactive) |
| COc1cc(-c2noc(C)c2/C=C/c2cccc([N+](=O)[O-])c2)cc(OC)c1OC | 9.59 µM |
| Cc1cc(C)c2nc(C)cc(N/N=C/c3ccc(O)cc3)c2c1 | 12.9 µM |
| COc1cc(NCCCCCCCN)c2ncccc2c1 | 11.8 µM |
| CCOC(=O)C(C)Oc1cccc2c(=O)n(CC(=O)NCc3ccccc3)ccc12 (stereo unspecified) | 0.78 µM |
| Cc1noc(C)c1COc1ccc(CC(=O)NCc2ccccc2)cc1 | 20.5 µM (inactive) |
| CC(C)Nc1ccc(C(CC(N)=O)NC(=O)c2ccc(Br)cc2)cc1[N+](=O)[O-] (stereo unspecified) | > 80 µM (inactive) |
| Cc1cccc(NS(=O)(=O)c2ccc(-c3cnc(C4CC4)o3)cc2)c1 | 3.27 µM |
| C=CC[C@@H](CC/C=C/C=C/CC/C=C\[C@@H]1CSC([C@@H]2C[C@@H]2C)=N1)OC | 3.72 µM |
| COc1cc(C(=O)N/N=C/c2cc([N+](=O)[O-])cs2)cc(OC)c1OC | 1.91 µM |
| CCN1/C(=C/C(C)=C/c2sc3ccccc3[n+]2CC)Sc2ccccc21 | 0.78 µM |
| Cc1cccc(N2CCN(C(=O)c3ccc(S(=O)(=O)N(C)c4ccccc4)cc3)CC2)c1C | 10.5 µM |
| Nc1nc(Cl)cc(N2CCC(c3cc(-c4ccc(Cl)cc4)n[nH]3)CC2)n1 | 2.44 µM |
| O=C1CC(c2cccc(Br)c2)c2cc3c(cc2N1)CCC3 (stereo unspecified) | 6.52 µM |
| COc1ccc(/C=C/C(=O)c2cc(F)ccc2OC(=O)c2ccccc2)cc1OC | < 0.16 µM |
| C=C(C=O)C[C@@H]1C[C@H](O)C2OC3C[C@]4(C)OC5/C=C\CC6OC7C(CC=CCC6OC5CCCC4OC3CC2O1)OC1CC2OC3CC(=O)OC3C[C@@H](C)C[C@@]2(C)OC1C[C@@H]7C (stereo partly specified) | > 80 µM (inactive) |
| c1ccc(-c2noc(-c3ccc4ccccc4c3)n2)nc1 | 3.2 µM |
| O=C(Nc1ccc(S(=O)(=O)N2CCOCC2)cc1)c1ccc(CN2CCc3ccccc3C2)cc1 | 1.29 µM |
| CCn1ncc(C2=NOC(C(=O)NCc3ccccc3)C2)c1C (stereo unspecified) | 2.39 µM |
| CCOC(=O)c1[nH]c(C)c(C(=O)Nc2cc(OC)ccc2OC)c1C | > 80 µM (inactive) |
